Measured values: ChEMBL document CHEMBL1201862, “PubChem BioAssay data set” (2004)
The source made the active and inactive calls.

Key:
Cytochrome P450 2D6 = Cytochrome P450 2D6 (Homo sapiens, UniProt P10635);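 further: CYP2D6 member of a cytochrome P450 panel assay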
[1] = target: T1, Delta-type opioid receptor (Homo sapiens, UniProt P41143); assay: HTS Image-Based Screen for Antagonists of the DOR Receptor. [Related pubchem assays (depositor defined):AID1777, AID1785, AID1786, AID2133]; format: functional
T1 sequence (P41143 whole entry): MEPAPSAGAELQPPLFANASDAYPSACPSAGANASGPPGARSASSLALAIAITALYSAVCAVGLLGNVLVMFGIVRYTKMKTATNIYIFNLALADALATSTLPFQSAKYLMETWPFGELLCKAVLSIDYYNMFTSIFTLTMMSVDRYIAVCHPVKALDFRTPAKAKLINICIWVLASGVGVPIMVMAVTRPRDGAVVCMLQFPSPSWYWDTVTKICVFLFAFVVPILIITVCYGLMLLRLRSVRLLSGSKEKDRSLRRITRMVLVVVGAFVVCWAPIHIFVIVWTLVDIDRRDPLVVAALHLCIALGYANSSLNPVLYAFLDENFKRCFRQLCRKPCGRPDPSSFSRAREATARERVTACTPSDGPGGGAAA

[2] = inhibitors of firefly luciferase expression or activity, dose response, H4 neuroglioma cells, luminescence (AID 1990); format: functional, cell-based
Mu-type opioid receptor = Mu-type opioid receptor (Homo sapiens, UniProt P35372); assay: HTS Image-Based Screen for Agonists of the MOR Receptor. [Related pubchem assays (depositor defined):AID1777, AID1785, AID1786, AID2133]; format: functional;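 further: imaging of beta-arrestin GFP recruitment into spots after receptor activation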
Sequence of Mu-type opioid receptor (P35372 whole entry): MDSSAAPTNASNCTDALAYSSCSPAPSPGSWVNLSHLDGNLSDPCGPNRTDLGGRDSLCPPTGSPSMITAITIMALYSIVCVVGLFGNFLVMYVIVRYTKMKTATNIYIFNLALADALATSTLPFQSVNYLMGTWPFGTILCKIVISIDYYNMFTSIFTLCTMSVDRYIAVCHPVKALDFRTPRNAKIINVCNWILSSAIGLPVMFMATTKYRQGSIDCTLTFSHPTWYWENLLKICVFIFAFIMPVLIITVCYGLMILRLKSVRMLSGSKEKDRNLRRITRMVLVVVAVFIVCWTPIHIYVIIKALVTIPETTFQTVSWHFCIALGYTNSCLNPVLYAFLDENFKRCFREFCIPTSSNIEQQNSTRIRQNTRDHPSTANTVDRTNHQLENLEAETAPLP

[3] = target: T1, Delta-type opioid receptor; assay: HTS Image-Based Screen for Agonists of the DOR Receptor. [Related pubchem assays (depositor defined):AID1777, AID1786, AID2133]; format: functional
BJ [4] = assay: cytotoxicity toward BJ-TERT fibroblasts, dose response, cell-based, RAS-independent, luminescence (AID 1933); format: functional; conditions: Homo sapiens
[5] = Luminescence Cell-Based Dose Response HTS to Identify Inhibitors of 5'UTR Stem-Loop Driven Prion Protein mRNA Translation in H4 Neuroglioblastoma Cells. [Related pubchem assays: 1827 (Project Summary), 1813 (Primary HTS)]; format: functional
Beta-galactosidase [6] = target: T2, Beta-galactosidase (Escherichia coli, UniProt Q8VNN2); assay: PubChem AID 485352; format: functional
T2 sequence (Q8VNN2 whole entry): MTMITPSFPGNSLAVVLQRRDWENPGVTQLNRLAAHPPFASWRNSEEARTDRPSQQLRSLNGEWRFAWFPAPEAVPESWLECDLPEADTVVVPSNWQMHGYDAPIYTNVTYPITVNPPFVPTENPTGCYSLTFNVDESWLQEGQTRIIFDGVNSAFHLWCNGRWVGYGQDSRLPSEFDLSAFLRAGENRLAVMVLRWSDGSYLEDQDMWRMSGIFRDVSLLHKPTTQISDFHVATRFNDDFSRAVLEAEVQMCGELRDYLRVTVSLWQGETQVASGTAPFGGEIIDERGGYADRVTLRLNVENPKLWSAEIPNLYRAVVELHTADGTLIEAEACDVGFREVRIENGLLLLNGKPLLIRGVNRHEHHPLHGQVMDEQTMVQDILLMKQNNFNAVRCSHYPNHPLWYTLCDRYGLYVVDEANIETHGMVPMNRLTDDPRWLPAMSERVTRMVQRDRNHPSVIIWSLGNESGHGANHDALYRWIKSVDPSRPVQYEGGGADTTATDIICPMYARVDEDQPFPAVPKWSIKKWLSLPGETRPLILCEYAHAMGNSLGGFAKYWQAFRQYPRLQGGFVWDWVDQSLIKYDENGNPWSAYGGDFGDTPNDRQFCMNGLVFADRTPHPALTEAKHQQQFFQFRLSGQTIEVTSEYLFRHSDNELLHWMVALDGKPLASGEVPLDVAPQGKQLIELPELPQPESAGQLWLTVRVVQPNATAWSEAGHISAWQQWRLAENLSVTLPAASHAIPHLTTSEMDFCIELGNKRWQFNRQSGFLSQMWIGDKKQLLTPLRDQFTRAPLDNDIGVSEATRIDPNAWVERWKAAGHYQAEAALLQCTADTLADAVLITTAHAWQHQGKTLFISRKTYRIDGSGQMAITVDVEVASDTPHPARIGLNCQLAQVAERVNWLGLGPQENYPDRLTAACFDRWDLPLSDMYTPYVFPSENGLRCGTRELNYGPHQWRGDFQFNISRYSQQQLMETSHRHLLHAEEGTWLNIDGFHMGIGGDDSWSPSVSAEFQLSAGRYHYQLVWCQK

[7] = inhibitors of SNCA 5'UTR-driven reporter translation, confirmation, H4 neuroglioma cells, luminescence (AID 1988); format: functional, cell-based
BJ [8] = assay: cells; format: functional, cell-based; conditions: Homo sapiens
[9] = target: T3, Type-1 angiotensin II receptor (Homo sapiens, UniProt P30556); assay: AT1 receptor antagonists, dose response, selectivity assay for APJ receptor antagonist project, cell-based, uHTS hits (AID 463214); format: functional;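 further: antagonist potency against angiotensin II stimulated AT1 response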
T3 sequence (P30556 whole entry): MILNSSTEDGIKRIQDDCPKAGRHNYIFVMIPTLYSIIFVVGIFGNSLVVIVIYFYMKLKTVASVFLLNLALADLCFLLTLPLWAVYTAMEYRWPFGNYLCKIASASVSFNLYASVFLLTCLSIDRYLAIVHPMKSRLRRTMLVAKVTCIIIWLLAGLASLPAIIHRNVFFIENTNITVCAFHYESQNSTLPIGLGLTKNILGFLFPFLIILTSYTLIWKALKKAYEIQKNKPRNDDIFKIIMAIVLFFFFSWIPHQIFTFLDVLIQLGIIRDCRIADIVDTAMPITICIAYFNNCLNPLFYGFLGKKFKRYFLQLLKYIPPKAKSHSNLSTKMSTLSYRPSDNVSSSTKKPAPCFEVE

[10] = target: T4, Kappa-type opioid receptor (Homo sapiens, UniProt P41145); format: functional
T4 sequence (P41145 whole entry): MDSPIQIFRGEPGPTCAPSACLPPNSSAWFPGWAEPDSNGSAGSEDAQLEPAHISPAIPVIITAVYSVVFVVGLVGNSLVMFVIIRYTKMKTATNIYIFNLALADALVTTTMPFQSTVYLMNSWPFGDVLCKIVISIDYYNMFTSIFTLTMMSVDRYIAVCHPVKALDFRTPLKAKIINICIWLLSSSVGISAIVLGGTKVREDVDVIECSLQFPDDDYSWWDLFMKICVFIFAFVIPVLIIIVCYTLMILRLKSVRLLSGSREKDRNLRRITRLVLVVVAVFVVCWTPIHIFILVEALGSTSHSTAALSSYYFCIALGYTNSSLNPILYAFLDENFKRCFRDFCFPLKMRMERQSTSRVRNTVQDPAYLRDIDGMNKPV

Beta-galactosidase [11] = target: T2, Beta-galactosidase; format: functional
BJ [12] = assay: cytotoxicity toward BJ-TERT-LT-ST fibroblasts, dose response, cell-based, RAS-independent, luminescence (AID 1935); format: functional; conditions: Homo sapiens;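 further: BJ fibroblasts immortalized with TERT plus LT and ST oncogenes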
[13] = target: T4, Kappa-type opioid receptor; format: functional; remark: listed apart in the source
[14] = cytotoxicity toward DRD oncogenic fibroblasts, dose response, cell-based, non-viral oncogenic, luminescence (AID 1934); format: functional; conditions: Homo sapiens
[15] = THP-1 cell cytotoxicity, dose response, cytotoxicity control for non-replicating M. tuberculosis project (AID 489025); format: functional
[16] = cytotoxicity in HEK-293T cells, dose response, cytotoxicity control for TCR NF-kB inhibitor project, luminescence, T-cell screen hits (AID 489026); format: functional, cell-based;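 further: cells exposed to compound about 14 hours before the viability readout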
cells = format: functional
[17] = target: T5, Replicative DNA helicase DnaB (Mycobacterium tuberculosis, UniProt P9WMR3); assay: DnaB intein splicing inhibitors, dose response, biochemical, cell-free fluorescence (AID 449749); format: functional
T5 sequence (P9WMR3 whole entry): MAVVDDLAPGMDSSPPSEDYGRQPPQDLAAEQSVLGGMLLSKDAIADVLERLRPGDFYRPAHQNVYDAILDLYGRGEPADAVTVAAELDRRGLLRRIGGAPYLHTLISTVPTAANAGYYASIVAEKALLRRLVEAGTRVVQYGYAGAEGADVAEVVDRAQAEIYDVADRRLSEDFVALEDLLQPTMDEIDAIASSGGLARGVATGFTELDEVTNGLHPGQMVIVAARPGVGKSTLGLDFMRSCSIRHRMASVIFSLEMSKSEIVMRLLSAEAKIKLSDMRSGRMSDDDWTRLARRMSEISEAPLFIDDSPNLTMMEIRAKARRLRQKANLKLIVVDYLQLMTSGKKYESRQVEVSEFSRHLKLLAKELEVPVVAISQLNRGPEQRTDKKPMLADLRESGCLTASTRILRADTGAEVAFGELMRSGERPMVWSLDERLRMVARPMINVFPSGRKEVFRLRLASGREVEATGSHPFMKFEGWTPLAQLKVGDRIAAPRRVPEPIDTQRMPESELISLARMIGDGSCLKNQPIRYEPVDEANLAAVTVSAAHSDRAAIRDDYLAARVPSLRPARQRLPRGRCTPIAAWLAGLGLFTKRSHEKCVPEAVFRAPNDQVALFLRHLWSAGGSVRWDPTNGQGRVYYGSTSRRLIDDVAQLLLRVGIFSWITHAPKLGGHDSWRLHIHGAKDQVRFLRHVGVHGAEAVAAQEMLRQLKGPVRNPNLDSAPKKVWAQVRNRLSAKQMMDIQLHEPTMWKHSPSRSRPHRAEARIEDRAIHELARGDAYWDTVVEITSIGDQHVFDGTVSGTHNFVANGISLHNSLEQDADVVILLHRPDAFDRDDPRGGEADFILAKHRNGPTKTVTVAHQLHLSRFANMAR

Protein RecA = target: T6, Protein RecA (Mycobacterium tuberculosis, UniProt P9WHJ3); assay: Fluorescence Cell-Free Homogeneous Dose Retest to Identify Inhibitors of RecA-Intein Splicing Activity. [Related pubchem assays (depositor defined):AID2097, AID2223, AID489010, AID492950]; format: functional
T6 sequence (P9WHJ3 whole entry): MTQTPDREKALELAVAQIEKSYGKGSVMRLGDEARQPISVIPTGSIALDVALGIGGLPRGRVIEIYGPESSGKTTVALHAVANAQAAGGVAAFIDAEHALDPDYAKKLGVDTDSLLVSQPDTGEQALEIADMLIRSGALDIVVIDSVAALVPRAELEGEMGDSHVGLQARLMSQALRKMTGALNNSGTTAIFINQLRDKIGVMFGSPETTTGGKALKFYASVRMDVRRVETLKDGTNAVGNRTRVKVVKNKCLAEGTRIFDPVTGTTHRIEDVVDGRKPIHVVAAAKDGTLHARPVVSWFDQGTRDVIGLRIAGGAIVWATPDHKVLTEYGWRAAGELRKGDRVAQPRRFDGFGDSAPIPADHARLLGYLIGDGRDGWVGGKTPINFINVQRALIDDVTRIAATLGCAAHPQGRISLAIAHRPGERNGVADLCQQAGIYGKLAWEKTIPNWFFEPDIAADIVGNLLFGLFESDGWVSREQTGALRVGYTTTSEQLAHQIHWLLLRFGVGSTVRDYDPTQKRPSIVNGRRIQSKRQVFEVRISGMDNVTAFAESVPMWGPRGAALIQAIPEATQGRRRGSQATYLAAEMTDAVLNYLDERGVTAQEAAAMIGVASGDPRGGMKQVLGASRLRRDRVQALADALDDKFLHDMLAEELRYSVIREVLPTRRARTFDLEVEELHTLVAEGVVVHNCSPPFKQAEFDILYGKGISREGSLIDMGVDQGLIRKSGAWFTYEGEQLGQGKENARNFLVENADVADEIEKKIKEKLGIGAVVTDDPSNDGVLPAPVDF

INS1 = assay: beta cell apoptosis inhibitors, cytokine rescue, dose response, luminescence, retest (AID 449756); format: functional, cell-based; conditions: Rattus norvegicus;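 further: cell death triggered by IL-1 beta plus TNF-alpha plus IFN-gamma mixture; protective hits raise ATP signal compared with cytokine alone wells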
[18] = Shn3 3'UTR reporter inhibitors, dose response, cell-based, Clone20 osteoblasts, firefly luciferase, cherry-picked (AID 624132); format: functional;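 further: firefly luciferase luminescence from reporter carrying the Shn3 3'UTR in osteoblasts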
[19] = HepG2 cell cytotoxicity, dose response, cytotoxicity control for Shn3 inhibitor project, CellTiter-Glo, cherry-picked (AID 624134); format: functional, cell-based
[20] = control 3'UTR Renilla luciferase suppression, dose response, counter-screen for Shn3 inhibitor project, cell-based, Clone20-Shn3RL, cherry-picked (AID 624133); format: functional
Paired box protein Pax-8 = Paired box protein Pax-8 (Homo sapiens, UniProt Q06710); assay: inhibitors of PAX8-driven TPO luciferase reporter, dose response, RMG-I cells, cherry-pick (AID 687027); format: functional, cell-based;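 further: luciferase reporter driven by Pax8 target thyroperoxidase promoter measured by SteadyGlo luminescence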
Sequence of Paired box protein Pax-8 (Q06710 whole entry): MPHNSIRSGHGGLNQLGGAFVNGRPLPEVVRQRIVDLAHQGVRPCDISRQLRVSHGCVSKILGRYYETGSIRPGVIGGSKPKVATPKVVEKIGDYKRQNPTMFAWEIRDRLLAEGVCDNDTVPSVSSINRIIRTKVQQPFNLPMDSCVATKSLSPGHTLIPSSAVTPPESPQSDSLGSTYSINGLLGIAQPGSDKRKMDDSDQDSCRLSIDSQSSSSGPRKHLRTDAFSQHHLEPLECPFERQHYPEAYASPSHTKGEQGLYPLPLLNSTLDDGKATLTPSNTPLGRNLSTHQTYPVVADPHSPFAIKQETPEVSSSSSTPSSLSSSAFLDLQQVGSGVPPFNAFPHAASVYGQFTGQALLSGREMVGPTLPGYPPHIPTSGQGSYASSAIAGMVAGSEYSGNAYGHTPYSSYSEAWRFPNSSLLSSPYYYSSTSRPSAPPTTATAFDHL

[21] = non-specific cell cytotoxicity, dose response, cytotoxicity control for PAX8 inhibitor project, plate reader, dry powder samples (AID 743021); format: functional, cell-based
[22] = target: Luciferin 4-monooxygenase (Photinus pyralis, UniProt P08659); assay: firefly luciferase enzyme inhibitors, dose response, biochemical, luminescence (AID 1891)
Sequence of Luciferin 4-monooxygenase (P08659 whole entry): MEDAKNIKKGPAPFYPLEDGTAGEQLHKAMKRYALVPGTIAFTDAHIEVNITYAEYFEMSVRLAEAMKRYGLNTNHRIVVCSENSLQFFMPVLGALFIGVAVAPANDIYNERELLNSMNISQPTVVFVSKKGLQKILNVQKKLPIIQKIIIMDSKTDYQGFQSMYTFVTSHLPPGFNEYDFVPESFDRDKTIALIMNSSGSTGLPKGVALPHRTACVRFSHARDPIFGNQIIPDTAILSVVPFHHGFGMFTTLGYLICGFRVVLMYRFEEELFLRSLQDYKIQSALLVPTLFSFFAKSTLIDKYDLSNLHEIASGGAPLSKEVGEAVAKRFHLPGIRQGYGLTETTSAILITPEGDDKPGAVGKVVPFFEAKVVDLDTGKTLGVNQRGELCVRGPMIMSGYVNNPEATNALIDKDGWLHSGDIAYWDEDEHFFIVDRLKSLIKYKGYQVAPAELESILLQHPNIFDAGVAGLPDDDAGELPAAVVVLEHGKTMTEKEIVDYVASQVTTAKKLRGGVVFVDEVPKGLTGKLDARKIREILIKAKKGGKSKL

[23] = Luminescence Cell-Based Dose Confirmation HTS to Identify Inhibitors of Platelet Dense Granule Release. [Related pubchem assays: 1663 (Primary HTS), 1678 (Summary of Project)]; format: functional
Cytochrome P450 2C19 = Cytochrome P450 2C19 (Homo sapiens, UniProt P33261); assay: Cytochrome panel assay with activity outcomes. Panel member name: p450-cyp2c19 Compounds with AC50 equal or less than 10 uM are considered active; format: functional; conditions: read-out: AC50
Sequence of Cytochrome P450 2C19 (P33261 whole entry): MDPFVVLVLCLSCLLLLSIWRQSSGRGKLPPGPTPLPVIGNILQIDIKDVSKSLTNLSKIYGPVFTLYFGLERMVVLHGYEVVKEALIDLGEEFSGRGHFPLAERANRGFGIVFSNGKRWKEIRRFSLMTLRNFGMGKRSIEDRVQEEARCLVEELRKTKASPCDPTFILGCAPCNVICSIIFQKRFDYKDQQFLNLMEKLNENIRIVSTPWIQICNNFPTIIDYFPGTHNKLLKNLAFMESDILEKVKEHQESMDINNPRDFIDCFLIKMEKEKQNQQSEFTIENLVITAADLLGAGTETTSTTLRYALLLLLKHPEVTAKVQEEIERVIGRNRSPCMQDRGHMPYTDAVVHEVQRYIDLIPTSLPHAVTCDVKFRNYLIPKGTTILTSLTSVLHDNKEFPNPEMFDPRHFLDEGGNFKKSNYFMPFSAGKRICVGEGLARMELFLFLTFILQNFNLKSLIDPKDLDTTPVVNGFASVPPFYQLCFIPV

Cytochrome P450 2C9 = Cytochrome P450 2C9 (Homo sapiens, UniProt P11712)
Sequence of Cytochrome P450 2C9 (P11712 whole entry): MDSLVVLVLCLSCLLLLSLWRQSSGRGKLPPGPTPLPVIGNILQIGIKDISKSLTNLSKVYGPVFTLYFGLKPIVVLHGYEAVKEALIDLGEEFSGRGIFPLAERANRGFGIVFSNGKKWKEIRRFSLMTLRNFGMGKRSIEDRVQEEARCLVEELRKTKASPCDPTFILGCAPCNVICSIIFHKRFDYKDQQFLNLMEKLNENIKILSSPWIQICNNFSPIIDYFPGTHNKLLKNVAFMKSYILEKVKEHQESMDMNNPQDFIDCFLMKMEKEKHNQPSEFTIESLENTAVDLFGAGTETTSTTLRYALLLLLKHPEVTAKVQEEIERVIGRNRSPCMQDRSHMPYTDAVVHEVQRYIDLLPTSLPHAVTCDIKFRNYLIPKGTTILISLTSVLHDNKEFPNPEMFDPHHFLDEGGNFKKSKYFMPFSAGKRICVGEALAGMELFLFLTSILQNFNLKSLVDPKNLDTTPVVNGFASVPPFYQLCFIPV

Sequence of Cytochrome P450 2D6 (P10635 whole entry): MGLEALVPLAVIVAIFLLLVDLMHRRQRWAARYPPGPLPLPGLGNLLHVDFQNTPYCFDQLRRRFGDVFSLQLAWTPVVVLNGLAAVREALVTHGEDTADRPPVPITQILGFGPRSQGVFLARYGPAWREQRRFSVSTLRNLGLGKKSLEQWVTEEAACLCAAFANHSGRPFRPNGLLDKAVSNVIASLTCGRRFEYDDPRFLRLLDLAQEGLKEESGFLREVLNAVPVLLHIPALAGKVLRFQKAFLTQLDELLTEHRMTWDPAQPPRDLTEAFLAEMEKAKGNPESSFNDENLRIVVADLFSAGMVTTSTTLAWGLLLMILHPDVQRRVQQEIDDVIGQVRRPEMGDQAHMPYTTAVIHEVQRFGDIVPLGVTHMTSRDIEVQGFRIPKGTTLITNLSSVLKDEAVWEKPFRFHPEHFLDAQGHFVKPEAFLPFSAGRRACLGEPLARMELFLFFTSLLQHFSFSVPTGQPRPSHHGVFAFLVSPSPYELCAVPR

## C#C[C@H](N)CCC(=O)O
Cytochrome P450 2D6
  AC50: inconclusive

## CCS(=O)(=O)c1ncc(Cl)c(C(=O)Nc2ccc(S(=O)(=O)N(C)c3ccccc3)cc2)n1
[1]
  IC50: 9.44 µM (active)
[2]
  EC50: > 120 µM (not active)
Mu-type opioid receptor
  EC50: > 32 µM (inactive)
[3]
  EC50: > 32 µM (inactive)
BJ [4]
  EC50: 0.784 µM (active)
[5]
  EC50: 8.51 µM (active)
Beta-galactosidase [6]
  EC50: > 40 µM (inactive)
[7]
  EC50: 5.71 µM (active)
BJ [8]
  EC50: 6.38 µM (inconclusive)
[9]
  IC50: 3.56 µM (active)
[10]
  IC50: 6.56 µM (active)
Beta-galactosidase [11]
  EC50: > 31.5 µM (inactive)
BJ [12]
  EC50: 5.62 µM (inconclusive)
[13]
  IC50: 4.2 µM
[14]
  EC50: 4.16 µM (active)
[15]
  CC50: 10.6 µM (active)
[16]
  IC50: 59.5 µM (inactive)
cells
  IC50: > 50 µM (active)
[17]
  AC50: 1.14 µM (active)
Protein RecA
  EC50: 1 µM (active)
INS1
  AC50: 5.7 µM (active)
[18]
  AC50: 0.308 µM (active)
[19]
  AC50: 10.7 µM (active)
[20]
  AC50: 1.91 µM (active)
Paired box protein Pax-8
  AC50: 5.12 µM (active)
[21]
  AC50: 21.2 µM (active)

## Cc1ccc(NC(=O)c2cc(NC(=O)CCCC(=O)O)ccc2Cl)cc1Cl
[22]
  EC50: > 112 µM (not active)
[23]
  EC50: > 112 µM (not active)
Cytochrome P450 2C19
  AC50: 0.891 µM (inconclusive)
Cytochrome P450 2C9
  AC50: 15.8 µM (inconclusive)
Cytochrome P450 2D6
  AC50: inconclusive
